Results as given in publication PMC2952696 (Bioorganic & medicinal chemistry letters, 2010).

Key:
Assay type in all cases: biochemical
human nNOS = human nNOS (Homo sapiens, UniProt P29475); experiment: NOS inhibition assay, human nNOS; settings: human nNOS vs rat nNOS
bovine eNOS = bovine eNOS (Bos taurus, UniProt P29473); experiment: NOS inhibition assay, bovine eNOS; settings: 2a vs 1
rat nNOS = rat nNOS (Rattus norvegicus, UniProt P29476); experiment: NOS inhibition assay, rat nNOS; settings: for selectivity n/e: rat nNOS over bovine eNOS; for selectivity n/i: rat nNOS over murine iNOS

drop of selectivity (Ki-human/Ki-rat) compared to 1 (human nNOS) [fold]	difference in eNOS potency compared to 1 (bovine eNOS) [fold]	drop of selectivity for rat nNOS over bovine eNOS compared to 1 (rat nNOS; 2a vs 1) [fold]	impaired potency for rat nNOS compared to 1 (rat nNOS; 2a vs 1, removal of 4-methyl group) [fold]	selectivity n/e (rat nNOS)	selectivity n/i (rat nNOS)	lower potency for rat nNOS compared to 2a (rat nNOS; 2b vs 2a) [fold]	Compound
1.2	3	2.3	7	1,200	200	–	Nc1cccc(C[C@@H]2CNC[C@@H]2OCCNCCc2cccc(F)c2)n1 [Compound 2a]
–	–	–	–	270	60	4	Nc1cccc(C[C@H]2CNC[C@H]2OCCNCCc2cccc(F)c2)n1 [Compound 2b]
1.6	–	–	–	530	200	–	N=C1CCCC(C[C@@H]2CNC[C@@H]2OCCNCCc2cccc(F)c2)N1 (stereo partly drawn) [Compound 3]
